Assay results taken from PubChem BioAssay (NCI).
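In this assay, cells in 96-well plates receive the compound at five concentrations for 48 hours. Endpoints are linearly interpolated between the surrounding concentrations. GI50 = concentration required for 50% inhibition of growth. TGI is the concentration that stops growth completely.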

How the values were obtained:
Assay in all cases: DTP human tumour cell line panel, 48 h
DU-145 prostate = tested on: DU-145 prostate
COLO 205 colon = tested on: COLO 205 colon
NCI/ADR-RES ovarian = tested on: NCI/ADR-RES ovarian
SF-268 CNS = tested on: SF-268 CNS
SK-MEL-5 melanoma = tested on: SK-MEL-5 melanoma
A549 NSCLC = tested on: A549 NSCLC
PC-3 prostate = tested on: PC-3 prostate
CCRF-CEM leukemia = tested on: CCRF-CEM leukemia

Compound | GI50 (DU-145 prostate) [µM] | TGI (DU-145 prostate) [µM] | GI50 (COLO 205 colon) [µM] | TGI (COLO 205 colon) [µM] | GI50 (NCI/ADR-RES ovarian) [µM] | TGI (NCI/ADR-RES ovarian) [µM] | GI50 (SF-268 CNS) [µM] | TGI (SF-268 CNS) [µM] | GI50 (SK-MEL-5 melanoma) [µM] | TGI (SK-MEL-5 melanoma) [µM] | GI50 (A549 NSCLC) [µM] | TGI (A549 NSCLC) [µM] | GI50 (PC-3 prostate) [µM] | TGI (PC-3 prostate) [µM] | GI50 (CCRF-CEM leukemia) [µM] | TGI (CCRF-CEM leukemia) [µM]
Nc1nc(N)c2c(n1)NC(c1ccc(F)cc1)C1CCc3ccccc3C1=N2 (centres undefined) | 7.45 | 19.8 | 1.62 | 3.61 | 3.19 | 11.4 | 8.64 | 23.7 | 0.609 | 2.21 | 10.2 | 24.3 | 2.03 | 9.31 | – | –
Oc1ccccc1CNCC12CC3CC(CC(C3)C1)C2 | 48.9 | > 100 | 15.6 | 31 | 40.4 | > 100 | 46.8 | > 100 | 13.5 | 26.9 | – | – | 26 | > 100 | – | –
COc1ccc(/C(=N\O)c2cc(C)c(OC)c(C)c2)cc1O | 0.0349 | > 100 | – | – | < 0.01 | > 100 | 0.0222 | > 100 | < 0.01 | 0.068 | 0.039 | > 100 | < 0.01 | > 100 | 0.0185 | > 100
O=Cc1ccccc1B(O)O | – | – | – | 40.3 | – | > 100 | – | > 100 | – | – | – | 38.5 | – | > 100 | – | 40
COc1ccc(C(=O)/C=C/c2ccc3c(c2)OCO3)c(OCc2ccccc2)c1 | – | > 100 | – | > 100 | – | – | – | > 100 | – | > 100 | – | > 100 | – | > 100 | – | > 26.9
CNC(=O)CC1NC(=O)c2csc(n2)-c2ccc(-c3nc(C4=NC(C(=O)N5CCCC5C(N)=O)CO4)cs3)nc2-c2csc(n2)-c2csc(n2)C(C(C)C)NC(=O)CNC(=O)c2csc(n2)C(C(C)C)NC(=O)c2nc1sc2C (centres undefined) | > 25 | > 25 | > 25 | – | > 25 | > 25 | > 25 | > 25 | > 25 | > 25 | > 25 | > 25 | – | – | > 25 | > 25
COc1cccc2c1C(=O)c1c(O)c3c(c(O)c1C2=O)C[C@@](O)(C(=O)CO)C[C@@H]3O[C@H]1C[C@H](N)[C@@H](O)[C@H](C)O1 | 0.159 | 5.8 | 0.313 | 1.23 | – | – | 0.196 | 2.08 | – | 0.623 | 0.05 | 1.22 | 0.551 | 5.32 | 0.0919 | 0.95
